Assay results reported in patent US20240316047A1, “INHIBITORS OF RNA HELICASE DHX9 AND USES THEREOF” (ACCENT THERAPEUTICS, INC., priority 2022, published 2024).

Target: Human recombinant DHX9 protein (Homo sapiens (Human), UniProt Q08211)
Assay: DHX9 ATPase assay (ADP-Glo)
Type: biochemical
Conditions: for IC50: read-out: DHX9 Biochemical Inflection Point

Human recombinant DHX9 protein, sequence (Q08211 whole entry): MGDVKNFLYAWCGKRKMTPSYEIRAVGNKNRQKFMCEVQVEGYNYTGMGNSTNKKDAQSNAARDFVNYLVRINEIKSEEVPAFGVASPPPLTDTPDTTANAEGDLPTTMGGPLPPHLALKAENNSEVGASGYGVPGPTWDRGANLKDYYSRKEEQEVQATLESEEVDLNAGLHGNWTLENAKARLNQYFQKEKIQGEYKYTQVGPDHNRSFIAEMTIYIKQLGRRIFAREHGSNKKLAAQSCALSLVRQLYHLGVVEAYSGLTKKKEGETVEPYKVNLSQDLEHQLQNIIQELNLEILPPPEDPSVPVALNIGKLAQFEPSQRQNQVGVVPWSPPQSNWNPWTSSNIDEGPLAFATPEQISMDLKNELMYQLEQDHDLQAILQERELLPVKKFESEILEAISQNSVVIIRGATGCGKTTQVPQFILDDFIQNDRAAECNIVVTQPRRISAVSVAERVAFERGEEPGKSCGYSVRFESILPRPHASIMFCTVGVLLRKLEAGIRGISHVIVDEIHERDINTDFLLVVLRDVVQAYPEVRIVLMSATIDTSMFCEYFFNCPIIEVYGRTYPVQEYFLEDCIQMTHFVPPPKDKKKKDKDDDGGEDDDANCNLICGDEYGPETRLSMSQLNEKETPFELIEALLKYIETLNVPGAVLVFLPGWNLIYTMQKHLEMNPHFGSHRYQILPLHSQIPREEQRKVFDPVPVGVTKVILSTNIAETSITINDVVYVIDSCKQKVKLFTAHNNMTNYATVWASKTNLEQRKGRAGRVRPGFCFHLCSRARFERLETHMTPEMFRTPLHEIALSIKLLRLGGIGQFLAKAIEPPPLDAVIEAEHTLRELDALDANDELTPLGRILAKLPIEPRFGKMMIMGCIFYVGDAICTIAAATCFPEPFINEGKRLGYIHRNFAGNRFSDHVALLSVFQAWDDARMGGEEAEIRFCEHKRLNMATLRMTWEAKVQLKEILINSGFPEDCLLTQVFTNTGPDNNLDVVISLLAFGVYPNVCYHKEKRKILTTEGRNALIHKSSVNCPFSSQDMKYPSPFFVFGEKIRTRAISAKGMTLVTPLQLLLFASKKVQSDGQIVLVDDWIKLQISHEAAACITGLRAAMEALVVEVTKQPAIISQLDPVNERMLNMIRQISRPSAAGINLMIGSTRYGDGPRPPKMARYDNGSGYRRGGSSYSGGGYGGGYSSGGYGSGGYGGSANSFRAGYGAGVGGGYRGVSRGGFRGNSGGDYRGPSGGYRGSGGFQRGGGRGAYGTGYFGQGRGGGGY

Compound | DHX9 Biochemical Max Inhibition | IC50
COc1cnc(-c2cc(C(=O)Nc3cc(Cl)cc(NS(C)(=O)=O)c3)sc2C)c(C)c1 [Example 361] | 88.8% | 
CS(=O)(=O)Nc1cc(Cl)cc(NC(=O)c2cc(-n3cc(F)cn3)cs2)c1 [Example 440] | 68.5 | 37.6 nM
Cn1cc(C(=O)Nc2cc(Cl)cc(NS(C)(=O)=O)c2)cc1-c1cccc(N2CC(F)(F)C2)n1 [Example 551] | 87.4 | 105 nM
Cc1sc(C(=O)Nc2cc(Cl)cc(NS(C)(=O)=O)c2)cc1-c1ncc(F)cc1OCc1cnco1 [Example 732] | 70.8 | 10.5 nM
CS(=O)(=O)Nc1cc(Cl)cc(NC(=O)c2cnn(-c3ncccc3-c3cncc(F)c3)c2)c1 [Example 392] | 79.3 | 2.9 nM
Cc1sc(C(=O)Nc2cc(Cl)cc(NS(C)(=O)=O)c2)cc1-c1ccc(N2CC3(C2)CC(F)(F)C3)cn1 [Example 499] | 68.1 | 35.7 nM
CS(=O)(=O)Nc1cc(Br)cc(NC(=O)c2cc(-c3ccccc3OCc3ccccc3)cs2)c1 [Example 30] | 40.5% | 787 nM
CCS(=O)(=O)Nc1cc(Cl)cc(NC(=O)c2cc(-c3ncc(F)cc3OCc3cncnc3)c(C)s2)c1 [Example 623] | 94.5 | 3.9 nM
Cc1cc(C(=O)Nc2cc(Cl)cc(NS(C)(=O)=O)c2)cn1-c1ccc(C(F)(F)F)cn1 [Example 443] | 76.6 | 59 nM
Cc1sc(C(=O)Nc2cc(Cl)cc(NS(C)(=O)=O)c2)cc1-c1ncc(F)cn1 [Example 336] | 84% | 9.6 nM
CCS(=O)(=O)Nc1cc(Cl)cc(NC(=O)c2cc(-c3ncc(C(F)(F)F)cc3C)c(C)s2)c1 [Example 700] | 85.6 | 153 nM
COc1cnc(-c2cc(C(=O)Nc3cc(Cl)cc(NS(C)(=O)=O)c3)sc2C)c(F)c1 [Example 358] | 84.3% | 38.4 nM
Cn1cc(C(=O)Nc2cc(Cl)cc(NS(C)(=O)=O)c2)cc1-c1ncc(F)cc1-c1cncc(F)c1 [Example 604, N-(3-chloro-5-methanesulfonamidophenyl)-5-{5,5′-difluoro-[3,3′-bipyridin]-2-yl}-1-methylpyrrole-3-carboxamide] | 69.1 | 37 nM
CS(=O)(=O)Nc1cc(Cl)cc(NC(=O)c2cc(-c3ncccc3F)n(CC(F)(F)F)c2)c1 [Example 564] | 77.8 | 70.1 nM
Cc1sc(C(=O)Nc2cc(Cl)cc(NS(C)(=O)=O)c2)cc1-c1ncc(N2CC(F)(F)C2)cc1OC1CCC1 [Example 514] | 73.8 | 73.3 nM
Cc1cc(C(=O)Nc2cc(Cl)cc(NS(C)(=O)=O)c2)cn1-c1ncc(Cl)cn1 [Example 578] | 70.1 | 149 nM
COC1CN(c2cnc(-n3cc(C(=O)Nc4cc(Cl)cc(NS(C)(=O)=O)c4)cc3C)nc2)C1 [Example 404] | 92 | 84.5 nM
Cn1cc(C(=O)Nc2cc(Cl)cc(NS(C)(=O)=O)c2)cc1-c1ncc(F)cc1Cl [Example 544] | 66.5 | 59 nM
Cc1cccnc1-c1csc(C(=O)Nc2cc(Br)cc(NS(C)(=O)=O)c2)c1 [Example 33] | 61.7% | 4.8 nM
CCOc1ccc(-n2cc(C(=O)Nc3cc(Cl)cc(NS(C)(=O)=O)c3)cc2C)nc1 [Example 437] | 84.2 | 15.5 nM
Cn1cc(C(=O)Nc2cc(Cl)cc(NS(C)(=O)=O)c2)cc1-c1ncc(C(F)(F)F)cc1F [Example 554] | 79.7 | 76.1 nM
COc1cc(N2CC(F)(F)C2)cnc1-c1cc(C(=O)Nc2cc(Cl)cc(NS(=O)(=O)CCO)c2)sc1C [Example 528] | 61.5 | 26.2 nM
Cn1cc(C(=O)Nc2cc(Cl)cc(NS(C)(=O)=O)c2)cc1N1CCCCC1=O [Example 158, N-(3-chloro-5-(methylsulfonamido)phenyl)-1-methyl-5-(2-oxopiperidin-1-yl)-1H-pyrrole-3-carboxamide] | 76.5% | 34.5 nM
Cn1cc(C(=O)Nc2cc(Cl)cc(NS(C)(=O)=O)c2)cc1-c1ncc(C(F)(F)F)cn1 [Example 571] | 71.3 | 21.1 nM
Cc1ncccc1-c1cc(F)cnc1-c1cc(C(=O)Nc2cc(Cl)cc(NS(C)(=O)=O)c2)sc1C [Example 608] | 75.4 | 7.2 nM
CS(=O)(=O)Nc1cc(Cl)cc(NC(=O)c2cnn(-c3ccc(N4CCOCC4=O)cn3)c2)c1 [Example 180] | 67.4% | 20.2 nM
Cn1cc(C(=O)Nc2cc(Cl)cc(NS(C)(=O)=O)c2)cc1-c1ncc(OC(C)(C)C)cn1 [Example 556] | 64.8 | 20.6 nM

Compound | DHX9 Biochemical Max Inhibition | IC50
COc1ccc(-n2cc(C(=O)Nc3cc(Cl)cc(NS(C)(=O)=O)c3)cn2)nc1 [Example 197] | 72.7% | 26 nM
Cc1sc(C(=O)Nc2cc(Cl)cc(NS(C)(=O)=O)c2)cc1-c1ncc(OC(C)(C)C(=O)O)cn1 [Example 670] | 73.4 | 6.2 nM
Cc1sc(C(=O)Nc2cc(Cl)cc(NS(C)(=O)=O)c2)cc1-c1ccc(N2CCN(C(=O)C3CC3)CC2)cn1 [Example 590, N-(3-chloro-5-methanesulfonamidophenyl)-4-[5-(4-cyclopropanecarbonylpiperazin-1-yl)pyridin-2-yl]-5-methylthiophene-2-carboxamide] | 74.8 | 5.9 nM
Cn1cc(C(=O)Nc2cc(Cl)cc(NS(C)(=O)=O)c2)cc1-c1ccc(N2CCN(C(=O)C(C)(C)C)CC2)cn1 [Example 591] | 65.9 | 18.3 nM
Cc1cccnc1-c1cc(C(=O)Nc2cc(F)cc(NS(C)(=O)=O)c2)sc1C [Example 333] | 78.1% | 35.1 nM
COc1cc(F)cnc1-n1cc(C(=O)Nc2cc(Cl)cc(NS(C)(=O)=O)c2)cc1C [Example 393] | 77 | 2.3 nM
CS(=O)(=O)Nc1cc(Br)cc(NC(=O)c2cnn(-c3cc(C#N)ccc3OCc3ccccc3)c2)c1 [Example 67] | 54% | 154 nM
CS(=O)(=O)Nc1cc(Cl)cc(NC(=O)c2cc3c(Cl)cccc3s2)c1 [Example 332] | 61.5% | 4830 nM
CCS(=O)(=O)Nc1cc(Cl)cc(NC(=O)c2cc(-c3ncc(OC(C)C)cn3)c(C)s2)c1 [Example 565] | 60 | 37.1 nM
Cc1cc(C(=O)Nc2cc(Cl)cc(NS(C)(=O)=O)c2)cn1-c1ccc(OC(C)(C)C)cn1 [Example 663] | 66.3 | 33 nM
Cc1sc(C(=O)Nc2cc(Cl)cc(NS(C)(=O)=O)c2)cc1-c1ncccc1O [Example 227] | 70.6% | 7.2 nM
CS(=O)(=O)Nc1cc(Cl)cc(NC(=O)c2cc3ccccn3c2)c1 [Example 209] | 64% | 89.4 nM
Cn1cc(C(=O)Nc2cc(Cl)cc(NS(C)(=O)=O)c2)cc1-c1ncc(N2CC(F)(F)C2)cc1F [Example 599] | 88.7 | 19.2 nM
Cc1cc(C(=O)Nc2cc(Cl)cc(NS(C)(=O)=O)c2)cn1-c1ccc(N2CC3(COC3)C2)cn1 [Example 276] | 73.8% | 4.7 nM
CS(=O)(=O)Nc1cc(Cl)cc(NC(=O)c2cnn(C3CCN(CC(F)(F)F)CC3)c2)c1 [Example 316] | 66.6% | 205 nM
CN1C(=O)N(c2csc(C(=O)Nc3cc(Cl)cc(NS(C)(=O)=O)c3)c2)C(=O)C1(C)C [Example 432] | 75.4 | 12.1 nM
CS(=O)(=O)Nc1cc(Cl)cc(NC(=O)c2cc(-c3ccc(F)cn3)n(S(C)(=O)=O)c2)c1 [Example 701] | 66.9 | 115 nM
CS(=O)(=O)Nc1cc(Br)cc(NC(=O)c2cnn(-c3ccccc3C(O)C(F)(F)F)c2)c1 (centres unmarked) [Example 103, N-(3-bromo-5-(methylsulfonamido)phenyl)-1-(2-(2,2,2-trifluoro-1-hydroxyethyl)phenyl)-1H-pyrazole-4-carboxamide] | 49.5% | 452 nM
CS(=O)(=O)Nc1cc(Cl)cc(NC(=O)c2cc3ccc(Cl)cc3s2)c1 [Example 293] | 55% | 87.2 nM
COc1ccc(-c2cc(C(=O)Nc3cc(Cl)cc(NS(C)(=O)=O)c3)cn2C)nc1 [Example 573] | 82.8 | 15.5 nM
Cc1cc(C(=O)Nc2cc(Cl)cc(NS(C)(=O)=O)c2)cn1-c1ncc(C(F)(F)F)cn1 [Example 426] | 74.7 | 58.5 nM
CN1CC[C@H](Oc2cnc(-c3cc(C(=O)Nc4cc(Cl)cc(NS(C)(=O)=O)c4)cn3CC(F)(F)F)nc2)C1 [Example 642] | 67.3 | 19.8 nM
CCS(=O)(=O)Nc1cc(Cl)cc(NC(=O)c2cc(-c3ncc(F)cn3)c(C)s2)c1 [Example 344] | 74.1% | 21 nM
CS(=O)(=O)Nc1cc(Cl)cc(NC(=O)c2cc(-c3ncc(F)cc3OCc3cncc(F)c3)cs2)c1 [Example 225] | 74.2% | 6.9 nM
CS(=O)(=O)Nc1cc(Cl)cc(NC(=O)c2cc3c(C(F)(F)F)cccc3s2)c1 [Example 323] | 58.2% | 282 nM
CS(=O)(=O)Nc1cc(Cl)cc(NC(=O)c2cnn(-c3ncccc3OCc3cn[nH]c3)c2)c1 [Example 206] | 74.9% | 16.8 nM
Cn1cc(C(=O)Nc2cc(Cl)cc(NS(C)(=O)=O)c2)cc1-c1ccc(N2CCC2)cn1 [Example 538] | 66.9 | 9.2 nM
